Measurements as given in ChEMBL document CHEMBL5291721, “A preclinical secondary pharmacology resource illuminates target-adverse drug reaction associations of marketed drugs” (Nat Commun, 2023).

Tests used:
[1] = target: T1, Peroxisome proliferator-activated receptor gamma (Homo sapiens, UniProt P37231); format: functional
T1 sequence (P37231 whole entry): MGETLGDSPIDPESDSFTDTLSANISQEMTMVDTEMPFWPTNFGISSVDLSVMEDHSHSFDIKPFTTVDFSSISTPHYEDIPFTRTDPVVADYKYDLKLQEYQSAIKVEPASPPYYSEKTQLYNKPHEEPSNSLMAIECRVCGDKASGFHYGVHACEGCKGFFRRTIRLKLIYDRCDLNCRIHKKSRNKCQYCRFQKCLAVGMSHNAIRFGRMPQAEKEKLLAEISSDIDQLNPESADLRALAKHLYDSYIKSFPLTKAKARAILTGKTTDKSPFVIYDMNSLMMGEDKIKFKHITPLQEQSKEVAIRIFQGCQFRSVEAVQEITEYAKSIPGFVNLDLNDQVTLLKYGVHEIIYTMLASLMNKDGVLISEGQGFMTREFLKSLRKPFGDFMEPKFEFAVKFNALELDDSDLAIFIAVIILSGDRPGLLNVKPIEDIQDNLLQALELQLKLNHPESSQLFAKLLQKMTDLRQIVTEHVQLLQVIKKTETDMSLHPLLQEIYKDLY

D(1A) dopamine receptor = D(1A) dopamine receptor (Homo sapiens, UniProt P21728)
D(1A) dopamine receptor, sequence (P21728 whole entry): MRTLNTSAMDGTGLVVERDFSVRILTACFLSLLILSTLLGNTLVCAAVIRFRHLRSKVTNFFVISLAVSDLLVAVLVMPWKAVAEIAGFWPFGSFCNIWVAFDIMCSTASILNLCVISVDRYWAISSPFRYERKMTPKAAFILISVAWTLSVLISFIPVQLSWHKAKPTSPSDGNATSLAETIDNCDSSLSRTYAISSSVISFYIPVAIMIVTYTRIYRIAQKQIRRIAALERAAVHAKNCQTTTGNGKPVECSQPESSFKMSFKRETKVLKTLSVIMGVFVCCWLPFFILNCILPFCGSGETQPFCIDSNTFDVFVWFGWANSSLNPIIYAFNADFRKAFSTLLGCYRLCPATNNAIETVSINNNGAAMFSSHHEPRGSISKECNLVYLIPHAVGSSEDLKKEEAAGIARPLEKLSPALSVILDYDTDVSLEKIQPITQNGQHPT

Glucagon receptor = Glucagon receptor (Homo sapiens, UniProt P47871)
Glucagon receptor, sequence (P47871 whole entry): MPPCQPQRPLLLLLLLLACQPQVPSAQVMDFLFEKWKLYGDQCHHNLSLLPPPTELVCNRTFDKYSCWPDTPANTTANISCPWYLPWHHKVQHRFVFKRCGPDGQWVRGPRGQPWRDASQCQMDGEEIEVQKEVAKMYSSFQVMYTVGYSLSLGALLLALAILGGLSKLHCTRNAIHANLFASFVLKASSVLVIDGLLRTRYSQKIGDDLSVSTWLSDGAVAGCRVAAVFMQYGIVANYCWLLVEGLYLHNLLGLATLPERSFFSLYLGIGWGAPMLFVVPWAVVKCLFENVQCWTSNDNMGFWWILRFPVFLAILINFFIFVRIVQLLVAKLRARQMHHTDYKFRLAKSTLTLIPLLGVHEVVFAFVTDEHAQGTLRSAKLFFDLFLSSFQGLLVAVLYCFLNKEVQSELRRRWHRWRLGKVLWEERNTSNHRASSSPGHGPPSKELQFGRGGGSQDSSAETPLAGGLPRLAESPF

Glucocorticoid receptor = target: T2, Glucocorticoid receptor (Homo sapiens, UniProt P04150); format: functional
T2 sequence (P04150 whole entry): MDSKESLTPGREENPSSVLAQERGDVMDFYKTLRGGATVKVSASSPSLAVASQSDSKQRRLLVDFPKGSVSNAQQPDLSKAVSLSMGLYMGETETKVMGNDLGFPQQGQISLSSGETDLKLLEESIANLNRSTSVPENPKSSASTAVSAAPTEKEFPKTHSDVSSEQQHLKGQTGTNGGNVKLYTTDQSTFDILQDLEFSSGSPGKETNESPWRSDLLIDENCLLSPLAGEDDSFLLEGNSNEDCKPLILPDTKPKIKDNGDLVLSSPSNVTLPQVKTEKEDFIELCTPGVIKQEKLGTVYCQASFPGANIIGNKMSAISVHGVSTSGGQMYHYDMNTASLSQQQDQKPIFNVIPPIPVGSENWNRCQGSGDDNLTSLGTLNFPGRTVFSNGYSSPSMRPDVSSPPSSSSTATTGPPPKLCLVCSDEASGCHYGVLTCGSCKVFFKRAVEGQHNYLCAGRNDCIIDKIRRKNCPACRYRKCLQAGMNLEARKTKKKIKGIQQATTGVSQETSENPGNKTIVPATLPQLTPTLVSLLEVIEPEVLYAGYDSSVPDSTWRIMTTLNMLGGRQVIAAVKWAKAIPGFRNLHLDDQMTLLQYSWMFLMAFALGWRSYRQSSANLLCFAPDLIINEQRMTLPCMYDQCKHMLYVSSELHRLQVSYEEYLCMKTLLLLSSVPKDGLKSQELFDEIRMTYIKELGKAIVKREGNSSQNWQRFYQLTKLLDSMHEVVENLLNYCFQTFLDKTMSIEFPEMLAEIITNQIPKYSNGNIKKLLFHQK

[2] = target: T3, 5-hydroxytryptamine receptor 1A (Homo sapiens, UniProt P08908)
T3 sequence (P08908 whole entry): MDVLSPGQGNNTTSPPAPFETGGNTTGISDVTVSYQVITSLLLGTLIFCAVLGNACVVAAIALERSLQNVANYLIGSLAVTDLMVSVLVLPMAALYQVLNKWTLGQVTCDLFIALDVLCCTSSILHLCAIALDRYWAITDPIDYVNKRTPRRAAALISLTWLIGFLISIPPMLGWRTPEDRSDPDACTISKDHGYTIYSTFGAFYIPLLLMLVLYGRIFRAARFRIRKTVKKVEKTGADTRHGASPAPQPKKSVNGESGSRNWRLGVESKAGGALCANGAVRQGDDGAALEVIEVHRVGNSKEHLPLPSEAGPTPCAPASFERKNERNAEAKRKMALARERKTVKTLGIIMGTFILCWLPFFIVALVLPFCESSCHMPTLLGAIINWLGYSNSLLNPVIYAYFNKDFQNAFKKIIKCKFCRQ

B1 bradykinin receptor = target: T4, B1 bradykinin receptor (Homo sapiens, UniProt P46663)
T4 sequence (P46663 whole entry): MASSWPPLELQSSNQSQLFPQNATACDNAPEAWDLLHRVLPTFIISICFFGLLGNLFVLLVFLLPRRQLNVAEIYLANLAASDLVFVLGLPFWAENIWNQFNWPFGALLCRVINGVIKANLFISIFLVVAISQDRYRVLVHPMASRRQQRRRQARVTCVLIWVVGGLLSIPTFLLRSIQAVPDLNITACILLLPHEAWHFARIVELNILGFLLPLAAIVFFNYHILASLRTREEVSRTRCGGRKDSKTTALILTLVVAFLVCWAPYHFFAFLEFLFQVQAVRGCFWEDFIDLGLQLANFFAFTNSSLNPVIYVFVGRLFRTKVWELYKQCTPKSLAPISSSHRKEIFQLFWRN
Further: assay procedure not described here.

Row | Structure (SMILES) | AC50 [1] | AC50 (D(1A) dopamine receptor) | AC50 (Glucagon receptor) | AC50 (Glucocorticoid receptor) | AC50 [2] | AC50 (B1 bradykinin receptor)
1 | CCCN(CCC)CCc1cccc2c1CC(=O)N2 [ROPINIROLE] | > 30 µM | > 10 µM | > 30 µM | > 30 µM | 8.15 µM | > 30 µM
2 | CC(=O)S[C@@H]1CC2=CC(=O)CC[C@]2(C)[C@H]2CC[C@@]3(C)[C@@H](CC[C@@]34CCC(=O)O4)[C@H]12 [SPIRONOLACTONE] | > 30 µM | > 10 µM | > 30 µM | > 30 µM | > 10 µM | > 30 µM
